From patent US11205502B2, “Processing method and processing apparatus for efficacy of combined drug” (Institute of radiation medicine, academy of military …, priority 2015, dated 2021)

Tested on: human hepatocellular carcinoma cell HepG2
Experiment: MTT method, growth inhibition of HepG2 by NX, TX and NX/TX combined application; expected additive effect by equivalent dose conversion
Format: cell-based
Conditions: for Efficacy of NX / Efficacy of TX: from fitted single-use equation
Text: Title: the nitrohydroxyl compound (NX) is an anti-infectious drug. […] Taxol (TX) is an anticancer drug frequently used in clinic. In an NX/TX combined application, the growth of a human hepatocellular carcinoma cell HepG2 is inhibited in an MTT method. A method for quantitatively processing relevant indexes of synergistic/additive/antagonistic effect is described, which provides a reference for research and development of a novel anticancer compound.
Step 1: a dose-effect relationship table of dose levels of each single drug and each member in a combined group is prepared, and a respective dose-effect relationship curve equation is fitted. For dose-effect relationship data among the NX, the TX and the single drug, the NX+TX at a fixed proportion in combined use (1/1, μg/ml+ng/ml), and dose-effect relationship data of the TX at a fixed concentration (2 ng/ml)+the NX at different concentrations in the combined use, see a table 1.
Step 2: the dose is converted sequentially, and each line of the dose-effect relationship data formed into an expected additive efficacy curve band under a combined condition is calculated.
Descriptions on numerical calculation in each column of the table 2: (3) column: data in (2) column are calculated with the formula (2); (4) column: data in (3) column are calculated with the formula (1); (5) column: (1) column+(4) column; (6) column: data in (5) column are calculated with the formula (1).
Descriptions on numerical calculation in each column: (7) column: data in (1) column are calculated with the formula (1); (8) column: data in (7) column are calculated with the formula (2); (9) column: (2) column+(8) column; (10) column: data in (9) column are calculated with the formula (2); “-” indicates to be beyond the dose-effect range of the TX.
Descriptions on numerical calculation in each column: (3) column: from the table 2; (4) column: from the table 3; (5) column: from the table 1; (6) column: (5) column data/(3) column data; (7) column: (5) column data/(4) column data; (8) column: standards are referred to the previous CId calculation.

SMILES: O=[N+]([O-])c1ccc(O)c2ncccc12 [NX, nitrohydroxyl compound]
- Inhibition rate (NX 0.5 μg/ml single use): 5.5%
- Efficacy of NX (NX 0.5 μg/ml): 5.5596%
- Efficacy of NX (NX 0.6 μg/ml): 6.4726%
- Efficacy of NX (NX 0.7 μg/ml): 7.7324%
- Efficacy of NX (NX 0.8 μg/ml): 9.3724%
- Efficacy of NX (NX 0.9 μg/ml): 11.4093%
- Inhibition rate (NX 1 μg/ml single use): 14%
- Efficacy of NX (NX 1 μg/ml): 13.8409%
- Efficacy of NX (NX 1.2 μg/ml): 19.7842%
- Efficacy of NX (NX 1.4 μg/ml): 26.8326%
- Efficacy of NX (NX 1.6 μg/ml): 34.4514%
- Efficacy of NX (NX 1.8 μg/ml): 42.0953%
- Inhibition rate (NX 2 μg/ml single use): 49.2%
- Efficacy of NX (NX 2 μg/ml): 49.3297%
- Efficacy of NX (NX 2.4 μg/ml): 61.6284%
- Efficacy of NX (NX 2.8 μg/ml): 70.7302%
- Efficacy of NX (NX 3.2 μg/ml): 77.1469%
- Efficacy of NX (NX 3.6 μg/ml): 81.6125%
- Inhibition rate (NX 4 μg/ml single use): 84.9%
- Efficacy of NX (NX 4 μg/ml): 84.7367%
- Efficacy of NX (NX 5 μg/ml): 89.1832%
- Efficacy of NX (NX 6 μg/ml): 91.2729%
- Efficacy of NX (NX 7 μg/ml): 92.3603%
- Inhibition rate (NX 8 μg/ml single use): 92.9%
- Efficacy of NX (NX 8 μg/ml): 92.9754%
- Efficacy of NX (NX 10 μg/ml): 93.5845%
- Efficacy of NX (NX 12 μg/ml): 93.8519%
- Efficacy of NX (NX 14 μg/ml): 93.9866%
- Inhibition rate (NX 16 μg/ml single use): 94.1%
- Efficacy of NX (NX 16 μg/ml): 94.0615%
- NX dose limits of the additive effect (TX fixed dose 2 ng/ml): 2.1229−4.5777 μg/ml

SMILES: CC(=O)O[C@H]1C(=O)[C@@]2(C)[C@H]([C@H](OC(=O)c3ccccc3)[C@]3(O)C[C@H](OC(=O)[C@H](O)[C@@H](NC(=O)c4ccccc4)c4ccccc4)C(C)=C1C3(C)C)[C@]1(OC(C)=O)CO[C@@H]1C[C@@H]2O [TX, Taxol]
- inhibition at 0.0005 µg/mL (Homo sapiens, HepG2, TX 0.5 ng/ml single use, read-out: Inhibition rate): 4.5%
- inhibition at 0.001 µg/mL (Homo sapiens, HepG2, TX 1 ng/ml single use, read-out: Inhibition rate): 14.1%
- inhibition at 0.002 µg/mL (Homo sapiens, HepG2, TX 2 ng/ml single use, read-out: Inhibition rate): 32.5%
- inhibition at 0.004 µg/mL (Homo sapiens, HepG2, TX 4 ng/ml single use, read-out: Inhibition rate): 59.3%
- inhibition at 0.008 µg/mL (Homo sapiens, HepG2, TX 8 ng/ml single use, read-out: Inhibition rate): 80.3%
- inhibition at 0.016 µg/mL (Homo sapiens, HepG2, TX 16 ng/ml single use, read-out: Inhibition rate): 87.4%
- Efficacy of TX (TX 0.5 ng/ml): 4.9763%
- Efficacy of TX (TX 0.6 ng/ml): 6.4296%
- Efficacy of TX (TX 0.7 ng/ml): 8.0213%
- Efficacy of TX (TX 0.8 ng/ml): 9.7270%
- Efficacy of TX (TX 0.9 ng/ml): 11.5241%
- Efficacy of TX (TX 1 ng/ml): 13.3922%
- Efficacy of TX (TX 1.2 ng/ml): 17.2688%
- Efficacy of TX (TX 1.4 ng/ml): 21.2305%
- Efficacy of TX (TX 1.6 ng/ml): 25.1792%
- Efficacy of TX (TX 1.8 ng/ml): 29.0423%
- Efficacy of TX (TX 2 ng/ml): 32.7687%
- Efficacy of TX (TX 2.4 ng/ml): 39.6901%
- Efficacy of TX (TX 2.8 ng/ml): 45.8191%
- Efficacy of TX (TX 3.2 ng/ml): 51.1569%
- Efficacy of TX (TX 3.6 ng/ml): 55.7657%
- Efficacy of TX (TX 4 ng/ml): 59.7311%
- Efficacy of TX (TX 5 ng/ml): 67.3956%
- Efficacy of TX (TX 6 ng/ml): 72.7395%
- Efficacy of TX (TX 7 ng/ml): 76.5600%
- Efficacy of TX (TX 8 ng/ml): 79.3653%
- Efficacy of TX (TX 10 ng/ml): 83.1039%
- Efficacy of TX (TX 12 ng/ml): 85.4029%
- Efficacy of TX (TX 14 ng/ml): 86.9144%
- Efficacy of TX (TX 16 ng/ml): 87.9614%
